Results: patent US20230241226A1, “COMPOUNDS FOR TARGETED DEGRADATION OF CARRIER PROTEINS AND USES THEREOF” (CeMM - Forschungszentrum für Molekulare Medizin GmbH, priority 2019, published 2023)
Residues, ends and D or L forms follow the SMILES beside them. *: point of attachment. Cbz = O=C(OCc1ccccc1)*

Legend:
dTAG-HA SLCs = assay: dTAG-driven SLC degradation, statements across SLCs (temporal control, chemical rescue); format: cell-based, human; settings: HAP1; 0.5 µM dTAG7 12 or 18 hours; MLN4924 1 µM, pomalidomide 10 µM, bortezomib 1 µM, MG-132 1 µM, bafilomycin A1 2.5 µM
Experimental: (D)Chemical “rescue” of dTAG-driven degradation of SLCs. HAP1 cell lines expressing dTAG-HA SLC1A5 or dTAG-HA SLC38A9 were treated with 0.5 µM dTAG7 for 12 or 18 hours, respectively. These cells were also treated with chloroquine (CQ, 50 µM), bortezomib (bort., 1 µM), MG-132 (MG, 1 µM), MLN4924 (MLN, 1 µM), pomalidomide (poma., 10 µM), or bafilomycin A1 (bafi., 2.5 µM). SLC degradation was rescued by inhibiting CRL activity or the proteasome, but not by inhibiting the lysosome machinery.
Western blotting with antibodies against the HA-tag and the total protein mirrored the observed pattern.
(D) Chemical “rescue” of dTAG driven degradation. HAP1 cell lines expressing dTAGHA SLC2A3, 39A7, […], and MTCH2 were treated with 0.5 µM dTAG7 for 12 hours. A cell line expressing dTAG-HA SLC38A2 was treated with 0.5 µM dTAG7 for 18 hours. These cells were treated with MLN4924 (MLN, 1 µM), pomalidomide (poma., 10 µM), or bafilomycin A1 (bafi., 2.5 µM) to monitor the inhibition of degradation.
(§1) For immunoblotting, whole cell extracts were prepared using RIPA lysis buffer (25 mM Tris/HCl pH 7.6, 150 mM NaCl, 1% NP-40, 1% sodium deoxycholate, 0.1% SDS, EDTA-free protease inhibitor (Roche) and phosphatase inhibitors 2+3 (Sigma- Aldrich)). Cell extracts were incubated for 15 min on ice in 50 µL RIPA buffer. Lysates were cleared by centrifugation (20,000 g, 10 min, 4° C.). Protein extracts were quantified and normalized using the BCA assay (Thermo Scientific). Where indicated, cleared lysates where treated with the enzyme PNGase (NEB) to deglycosylate the proteins. Lämmli Sample Buffer 4x was added to protein extract samples without boiling. Cell lysates were run on SDS-polyacrylamide gel in tris-glycine running buffer and transferred to nitrocellulose membranes Amersham Protran 0.45 µm (GE Healthcare), according to standard methods. The membranes were incubated with the antibodies indicated below and visualized with horseradish peroxidase-conjugated secondary antibodies (described below) using the ECL Western blotting system (Thermo Scientific). The following antibodies were used: GAPDH (Santa Cruz, sc-365062), Actin (Cyoskeleton Inc., #AAN01), HA (Covance, cat #MMS-101R), HA (Cell Signaling, #3724), HA7-HRP (Sigma, H6533), HA (Roche, #11867423001), SLC9A1 (Santa Cruz, sc-136239), SLC2A1 (Cell Signaling, #12939), SLC38A1 (Cell Signaling, #36057). Secondary antibody for imaging goat anti-Rat IgG Alexa Fluor 488 (ThermoFisher, A11006). The following secondary antibodies were used for immunoblotting: goat anti-mouse HRP (115-035-003, Jackson ImmunoResearch) and goat anti-rabbit HRP (111-035-003, Jackson ImmunoResearch).
SLCs were ectopically expressed as fusions to a mutated FKBP domain, also known as the dTAG system. In brief, a dTAGed protein is amenable to degradation by specific chimeric degrader molecules (e.g. dTAG7/dTAG13) that simultaneously bind to the dTAG and the CRL4CRBN E3 ligase, inducing molecular proximity and ensuing degradation by the proteasome. Given that SLCs were expressed in all cellular compartments, the amenability of differentially located SLCs to targeted proteolysis was tested (FIG. 1A, upper graph). Each of the tested SLCs was stably expressed in HAP1 cells, and subcellular localization was assessed by immunofluorescence microscopy (FIG. 1B). In detail, SLCs located at the cell surface (SLC1A5, SLC38A1, SLC2A1, SLC2A3, SLC16A1, SLC4A4, SLC7A3), cell surface and vesicles (SLC38A2), lysosome (SLC38A9), Golgi (SLC35B2, SLC33A1), mitochondria (SLC25A26, SLC25A1, and MTCH2) and endoplasmic reticulum (SLC39A7, SLC30A9) were assayed. Cellular treatment with a specific degrader molecule (dTAG7 or dTAG13) led to identification of SLCs expressed at cell surface, endoplasmic reticulum and lysosome that were amenable to targeted degradation (FIGS. 1C, 5A). The dTAG could be placed on either N- or C-terminus of the SLC, if both face the cytoplasm (FIG. 5B), as exemplified by SLC2A3. […]

SLC9A1 = target: T1, SLC9A1 (Homo sapiens, UniProt P19634); assay: Degradation of endogenous SLC9A1 (immunoblot); format: cell-based; settings: WT KBM7; 0.5 µM d9A1-2 16 hours; bortezomib 0.25 µM, MG-132 1 µM, MLN4924 1 µM, pomalidomide 1 µM, bafilomycin A1 10 µM
T1 construct: endogenous in cells; host or cells: HAP1, KBM7 (WT and CRBN knockout)
T1 sequence (P19634 whole entry): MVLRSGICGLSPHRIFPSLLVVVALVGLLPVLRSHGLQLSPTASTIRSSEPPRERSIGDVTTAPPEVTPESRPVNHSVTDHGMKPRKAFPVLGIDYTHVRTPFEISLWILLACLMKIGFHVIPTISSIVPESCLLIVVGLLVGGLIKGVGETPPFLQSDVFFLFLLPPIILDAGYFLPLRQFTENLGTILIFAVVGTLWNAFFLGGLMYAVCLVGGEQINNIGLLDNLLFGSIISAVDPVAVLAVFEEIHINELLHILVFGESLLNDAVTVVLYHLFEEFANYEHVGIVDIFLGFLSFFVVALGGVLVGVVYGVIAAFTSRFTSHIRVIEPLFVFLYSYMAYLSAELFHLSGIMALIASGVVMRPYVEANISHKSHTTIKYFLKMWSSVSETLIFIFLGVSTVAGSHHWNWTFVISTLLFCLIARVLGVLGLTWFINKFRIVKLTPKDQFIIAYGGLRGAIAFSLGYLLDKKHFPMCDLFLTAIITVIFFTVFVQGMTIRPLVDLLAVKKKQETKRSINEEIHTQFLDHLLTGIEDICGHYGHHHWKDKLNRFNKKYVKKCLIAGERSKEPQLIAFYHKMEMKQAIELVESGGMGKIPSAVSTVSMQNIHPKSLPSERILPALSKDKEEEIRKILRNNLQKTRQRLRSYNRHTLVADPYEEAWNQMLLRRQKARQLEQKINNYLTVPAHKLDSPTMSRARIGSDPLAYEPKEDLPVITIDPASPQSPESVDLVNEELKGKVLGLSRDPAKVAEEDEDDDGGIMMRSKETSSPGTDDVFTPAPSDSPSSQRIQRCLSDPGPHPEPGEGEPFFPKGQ
Experimental: (B) HAP1 and KBM7 cells were treated with different concentrations of d9A1-2.
(C)Both WT and CRBN knockout KBM7 cell lines were treated with 1 µM d9A1-2 for 16 hours.
(D) Chemical “rescue” of d9A1-2 driven degradation. WT KBM7 cell lines were treated with 0.5 µM d9A1-2 for 16 hours. These cells were also treated with bortezomib (bort. 0.25 µM), MG-132 (MG, 1 µM), MLN4924 (MLN,1 µM), pomalidomide (poma., 1 µM), or bafilomycin A1 (bafi., 10 µM). All molecules, apart from bafilomycin, could rescue SLC9A1 from degradation.
(B) HAP1 cells were treated with a dose curve of the warhead, d9A1-1, d9A1-2, d9A1-3, d9A1-4, for 24 hours.
(C) KBM7 cells were treated with varying concentrations of d9A1-2.
HEK293T, LS180 were obtained from ATCC (Manassas, VA, USA), HAP1 WT, HAP1 -/-SLC38A2 (HZGHC001975c003), HAP1 -/-SLC38A9 (HZGHC000777c011) were obtained from Horizon Genomics. Other cell lines utilized here: CAKI (a gift of Georg Winter’s lab), SW620, SW480 (both a gift from Walter Berger’s lab, Medical University Vienna), LOVO, HCT15 (both a gift from Chris Gasche), KBM7 (a gift from Thijn Brummelkamp’s lab), KBM7 -/- CRBN was described in Mayor-Ruiz et al. Cells were cultured, according to the ATCC recommendation in DMEM, RPMI or IMDM medium (Gibco) supplemented with 10% (v/v) FBS and antibiotics (100 U/ml penicillin and […] streptomycin). Knock-in single cell clones of dTAG-HA SLC38A2 HAP1 cell line were generated as previously described. For starvation, culture media was replaced with media without amino acids or FBS.
as §1
MG132, Bortezomib, Pomalidomide were obtained from Selleckchem. MLN4924 was obtained from MedchemExpress. Bafilomycin was obtained from Enzo Life Sciences. dTAG13 was a generous gift from the Nathanael Gray laboratory, Dana Farber Cancer Institute. The d9A1 degrader series (warhead, d9A1-1 to d9A1-4) was synthesized by Wuxi AppTec. All chemicals were dissolved in DMSO (Sigma-Aldrich) and utilized at the concertation described in respective figures.

Row | SMILES | effect of co-treatment on dTAG7 mediated SLC degradation (chemical rescue) (dTAG-HA SLCs) | effect of co-treatment on d9A1-2 driven SLC9A1 degradation (chemical rescue) (SLC9A1)
1 | CC(C)C[C@H](NC(=O)[C@H](Cc1ccccc1)NC(=O)c1cnccn1)B(O)O [bortezomib] | rescued SLCs degradation | rescued SLCs degradation
2 | NS(=O)(=O)OC[C@@H]1C[C@@H](n2ccc3c(N[C@H]4CCc5ccccc54)ncnc32)C[C@@H]1O [MLN4924] | blocked | abrogated
3 | CO/C1=C\C(C)=C\[C@@H](C)[C@@H](O)[C@@H](C)C/C(C)=C/C=C/[C@H](OC)[C@@H]([C@@H](C)[C@@H](O)[C@H](C)[C@@]2(O)C[C@@H](O)[C@H](C)[C@@H](C(C)C)O2)OC1=O [bafilomycin A1] | degradation appeared unaffected | 
4 | Nc1cccc2c1C(=O)N(C1CCC(=O)NC1=O)C2=O (stereo not drawn) [pomalidomide] | prevented measurable SLC degradation | blocked d9A1-2-induced degradation of SLC9A1
5 | CC(C)C[C@@H](C=O)NC(=O)[C@H](CC(C)C)NC(=O)[C@H](CC(C)C)NC(=O)OCc1ccccc1 [MG132] (Cbz-Leu-Leu-Leu-aldehyde) | rescued SLCs degradation | rescued SLCs degradation
